Drawing on the supplement of paper PMC11003180, this text covers drug sensitivity score for 17 molecules.

Holding throughout (experiment): drug sensitivity score (DSS) from 5-dose viability curve (DSS (area-based score, 0 = no response)); higher = more sensitive (stronger viability inhibition); extreme values may be limits of the assay
The test system of test [1] is MDCK wild-type - doxycycline. The following applies: doxycycline: none; 72 h. The essentials: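 An oncology library of 528 drugs was pre-spotted at five doses (1-10,000 nM) in 384-well plates, and parental MDCK cells without doxycycline were added at 2000 cells/well. The plates were kept at 37 °C for 72 h. Drug sensitivity scores were obtained by fitting dose-response curves in the Breeze pipeline to CellTiter-Glo viability readings scaled per plate between vehicle and positive controls.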

Test [2] concerns MDCK p60AmotL2-inducible + doxycycline (p60AmotL2 expressing). The following applies: doxycycline: 10 ng/mL; 72 h. Put shortly:
(§1)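 Pre-spotted 384-well plates held 528 oncology drugs, each at five doses from 1 to 10,000 nM. Parental and doxycycline-inducible MDCK cells, exposed beforehand to 10 ng/mL doxycycline in the medium, were added at 2000 cells/well and incubated 72 h at 37 °C. Viability came from CellTiter-Glo luminescence normalized per plate to vehicle and positive controls, and the Breeze pipeline fitted dose-response curves to give drug sensitivity scores.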

Test [3] has as its system MDCK wild-type + doxycycline. The note with it: doxycycline: 10 ng/mL; 72 h. The essentials: as §1

Take `CNC(=O)c1cccc2cc(Oc3ccnc4cc(OCC5(N)CC5)c(OC)cc34)ccc12` [Lucitanib]: the drug sensitivity score came to 0 in test [1], 2.6 in test [2] and 0.7 in test [3].
On the same counts, the results for `CCNC(=O)c1noc(-c2cc(C(C)C)c(O)cc2O)c1-c1ccc(CN2CCOCC2)cc1` [Luminespib] are 15.8, 20.7 and 18.4.
As for `O=C(O)CC[C@H]1CC[C@@](c2cc(F)ccc2F)(S(=O)(=O)c2ccc(Cl)cc2)CC1` [MK-0752], the drug sensitivity score in test [1], in test [2] and in test [3] was 0 in each case.
For the molecule `NC1(c2ccc(-c3nc4ccn5c(=O)[nH]nc5c4cc3-c3ccccc3)cc2)CCC1` [MK-2206], the drug sensitivity score in test [1], in test [2] and in test [3] was 0 each time.
Consider `O=C(c1cccc(Cl)c1F)N1CCN(Cc2cccc(Nc3nccs3)n2)CC1` [MK-8745], for which the drug sensitivity score in test [1] was 6.6; in test [2], 12.4; in test [3], 9.5.
The matching figures for `Cn1cc(-c2cnn3c(N)c(Br)c([C@@H]4CCCNC4)nc23)cn1` [MK-8776]: 0, 0 and 0.
For the molecule `Cc1cnc(-c2ccccc2C(C)C)nc1NCc1ccc(-n2ccnn2)cc1` [ML323], the drug sensitivity score in test [1] was 0; in test [2] it was 1.4; in test [3], 0.
Turning to `O=C(CCNC(=O)c1ccc(OC(F)(F)F)cc1)N[C@@H]1CCCc2ccccc21` [ML390], the figures for the drug sensitivity score in test [1], in test [2] and in test [3] were 13.8, 18.3 and 14.5, respectively.
The matching figures for `O=C(Nc1cccc(NC(=O)c2cccc(O)c2O)c1)c1cccc(O)c1O` [MST-312]: 7.2, 9.1 and 5.9.
The matching figures for `CNC(=O)[C@@H](NC(=O)[C@H](CC(C)C)[C@H](O)C(=O)NO)C(C)(C)C` [Marimastat]: 0, 3.5 and 0.1.
As to `Cc1ccc(NC(=O)c2ccc(CN3CCN(C)CC3)cc2)cc1Nc1nc(-c2cccnc2)cs1` [Masitinib], the drug sensitivity score came out at 5.7 in test [1], 5.3 in test [2] and 8.2 in test [3].
The matching figures for `CC(=O)O[C@]1(C(C)=O)CC[C@H]2[C@@H]3C=C(C)C4=CC(=O)CC[C@]4(C)[C@H]3CC[C@@]21C` [Megestrol acetate]: 0, 0 and 0.
The matching figures for `CCN(CC)CCCC(C)Nc1c2ccc(Cl)cc2nc2ccc(OC)cc12` (stereo unspecified) [Mepacrine]: 10.5, 15.2 and 16.2.
Regarding `S=c1[nH]cnc2nc[nH]c12` [Mercaptopurine], the drug sensitivity score was determined as 2.1 in test [1], 1.6 in test [2] and 1.8 in test [3].
With `Cc1ccc(C(=O)Nc2ccc(Oc3cc4cnn(C)c4cc3-c3cn[nH]c3)c(F)c2)c(=O)n1-c1ccc(F)cc1` [Merestinib], the drug sensitivity score in test [1] turned out to be 0.9; in test [2], 0; in test [3], 0.
For the molecule `CN(C)C(=N)NC(=N)N` [Metformin], the drug sensitivity score in test [1], in test [2] and in test [3] was 0 in each case.
Consider `CN(Cc1cnc2nc(N)nc(N)c2n1)c1ccc(C(=O)N[C@@H](CCC(=O)O)C(=O)O)cc1` [Methotrexate], for which the figures for the drug sensitivity score in test [1], in test [2] and in test [3] were 27, 22.5 and 25.8, respectively.
